In patent US12312359B2 (Vitae Pharmaceuticals, LLC, priority 2016, dated 2025):

Key:
[1] = target: T1, biotinylated wild-type menin and MLL-AF9 fusion protein (menin/MLL binding) (Homo sapiens, UniProt O00255); assay: Assay 1: menin/MLL binding AlphaLISA assay, wild-type menin; conditions: Table 30; column head does not say wild-type or mutated menin
T1 construct: made in house; host or cells: menin: E. coli; MLL-AF9-FLAG: HEK293 cells, used as cleared lysate
T1 sequence (O00255 1-610): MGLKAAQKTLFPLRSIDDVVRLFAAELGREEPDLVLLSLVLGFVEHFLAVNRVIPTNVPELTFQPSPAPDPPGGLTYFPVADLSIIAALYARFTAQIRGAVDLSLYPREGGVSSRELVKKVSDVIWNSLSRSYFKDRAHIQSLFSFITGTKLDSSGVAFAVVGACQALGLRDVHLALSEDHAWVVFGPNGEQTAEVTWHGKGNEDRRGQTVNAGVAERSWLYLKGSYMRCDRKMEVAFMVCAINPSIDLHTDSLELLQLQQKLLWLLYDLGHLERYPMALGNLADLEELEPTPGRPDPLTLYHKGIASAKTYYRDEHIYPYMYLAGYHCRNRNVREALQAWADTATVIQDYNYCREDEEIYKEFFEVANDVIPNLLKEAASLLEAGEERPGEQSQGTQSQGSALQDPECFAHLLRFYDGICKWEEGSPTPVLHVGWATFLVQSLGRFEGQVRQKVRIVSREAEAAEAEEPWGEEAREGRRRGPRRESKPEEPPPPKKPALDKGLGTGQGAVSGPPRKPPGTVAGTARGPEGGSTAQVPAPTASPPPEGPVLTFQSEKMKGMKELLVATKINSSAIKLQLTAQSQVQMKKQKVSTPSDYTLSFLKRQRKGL
Procedure: Potencies of inhibitor compounds against menin/MLL binding were assessed by AlphaLISA assay using biotinylated (1) wild-type menin or (2) mutated menin (described in Huang et al, 2012, Nature, 482, 542-546) and MLL-AF9 fusion protein bearing a FLAG epitope at its C-terminus. Menin proteins were expressed in E. coli and covalently modified with biotin using EZ-Link™ Sulfo-NHS-Biotin (ThermoFisher Cat.No. 21217) according to manufacturer's protocol. MLL1-1,396 fused to AF91-92 and the C-terminal FLAG peptide was expressed in HEK293 cells and used as a lysate cleared at 21,000×g for 10 min.
Compounds (2 μL of solutions in DMSO) were dispensed in white 96-well half-area plates (Corning Cat.No. 3693) and incubated for 30 min at RT with 5 nM biotinylated menin and appropriate amount of MLL-AF9-FLAG lysate in 40 μL of 50 mM Tris-HCl buffer pH 7.4 containing 5% (v/v) DMSO, 50 mM NaCl, 0.01% (w/v) bovine serum albumin (BSA) and 1 mM DTT. To this incubation mixture, 40 μL of AlphaLISA anti-FLAG acceptor (PerkinElmer Cat.No. AL112C) and streptavidin donor (PerkinElmer Cat.No. 6760002) beads (10 μg/mL each) was added and incubation continued at RT for 60 min. Alpha (amplified luminescent proximity homogeneous assay) signal was measured on an Envision multi-label plate reader at the end of the incubation. All steps were conducted under dim fluorescent light.
These percent inhibition values were regressed against compound concentrations in the assay using four parameter logit non-linear curve fitting (XLFit, IDBS). The IC50 values were derived from the curve fitting as inflection points on the dose-response curves and are set out in Table 30 below.

[2] = tested on: human acute monocytic leukemia cell line MV-4-11; assay: Assay 2: cell proliferation assay (ATP quantitation, CellTiter-Glo), MV-4-11; type: cell-based; conditions: MV-4-11 cells
Procedure: Potencies of inhibitor compounds against cell proliferation was assessed against the human acute monocytic leukemia cell line MV-4-11 (ATCC® CRL-9591™) based on ATP quantitation. MV-4-11 cells or toxicity control HL-60 cells (ATCC® CCL-240™) were incubated in 96-well tissue culture plates (1.67×10^4 cells in 200 μL culture media containing 10% FBS per well) with or without test compound for 72 h at 37° C., 5% CO2. After incubation, each well was mixed by pipetting and 95 μL from each well was transferred to a well in 96-well black OptiPlate® plates (PerkinElmer). An equal volume of CellTiter-Glo® Luminescent Cell Viability Assay reagent (Promega) was added to each well, followed by mixing for 5 min on an orbital plate shaker. Luminescence was measured on a Wallac EnVision 2104 Multilabel Reader (PerkinElmer) to quantitate ATP.

Row | IC50 [1] | EC50 ([2]; 72 h) | EC50 ([2]; Homo sapiens, MV4-11, 72 h) | SMILES
1 | < 0.1 µM | – | 0.1 to 1 µM | O=C(c1cc(F)ccc1Oc1cncnc1N1CCC2(CCN(Cc3ccc4[nH]c(=O)[nH]c4c3)C2)C1)N1CCCC1 (stereo not shown) [Example 154, 5-((7-(5-(4-fluoro-2-(pyrrolidine-1-carbonyl)phenoxy)pyrimidin-4-yl)-2,7-diazaspiro [4.4]nonan-2-yl)methyl)-1,3-dihydro-2H-benzo[d]imidazol-2-one]
2 | < 0.1 µM | – | 0.1 to 1 µM | CCn1c(=O)[nH]c2cc(CN3CCC4(CCN(c5ncncc5Oc5ccc(F)cc5C(=O)N(C)C(C)C)C4)C3)ccc21 (stereo not shown) [Example 128, 2-((4-(7-((1-ethyl-2-oxo-2,3-dihydro-1H-benzo[d]imidazol-5-yl)methyl)-2,7-diazaspiro[4.4]nonan-2-yl)pyrimidin-5-yl)oxy)-5-fluoro-N-isopropyl-N-methylbenzamide]
3 | < 0.1 µM | – | 0.1 to 1 µM | CN(C(=O)c1cc(F)ccc1Oc1cncnc1N1CCC2(CCN(Cc3ccc4[nH]c(=O)[nH]c4c3)C2)C1)c1ccccc1 (stereo not shown) [Example 166, 5-fluoro-N-methyl-2-((4-(7-((2-oxo-2,3-dihydro-1H-benzo[d]imidazol-5-yl)methyl)-2,7-diazaspiro[4.4]nonan-2-yl)pyrimidin-5-yl)oxy)-N-phenylbenzamide]
4 | < 0.1 µM | ≥ 1 µM | – | Cc1cc(C#N)ccc1-c1cc(F)ccc1Oc1cncnc1N1CCC2(CCN(Cc3ccc4[nH]c(=O)[nH]c4c3)C2)C1 (stereo not shown) [Example 226, 5′-fluoro-2-methyl-2′-((4-(7-((2-oxo-2,3-dihydro-1H-benzo[d]imidazol-5-yl)methyl)-2,7-diazaspiro[4.4]nonan-2-yl)pyrimidin-5-yl)oxy)-[1,1′-biphenyl]-4-carbonitrile]
5 | < 0.1 µM | – | < 0.1 µM | CC(C)C(=O)c1cc(F)ccc1Oc1cncnc1N1CCC2(CCN(Cc3ccc4c(c3)NC(=O)C4(C)C#N)C2)C1 (stereo not shown) [Example 11, 6-((7-(5-(4-fluoro-2-isobutyrylphenoxy)pyrimidin-4-yl)-2,7-diazaspiro[4.4]nonan-2-yl)methyl)-3-methyl-2-oxoindoline-3-carbonitrile]
6 | < 0.1 µM | – | < 0.1 µM | CC(C)c1ncncc1-c1cc(F)ccc1Oc1cncnc1N1CCC2(CCN(Cc3ccc4[nH]c(=O)[nH]c4c3)C2)C1 (stereo not shown) [Example 160, 5-((7-(5-(4-fluoro-2-(4-isopropylpyrimidin-5-yl)phenoxy)pyrimidin-4-yl)-2,7-diazaspiro[4.4]nonan-2-yl)methyl)-1,3-dihydro-2H-benzo[d]imidazol-2-one]
7 | < 0.1 µM | – | ≥ 1 µM | CC(C)N(C)S(=O)(=O)c1cc(F)ccc1Oc1cncnc1N1CCC2(CCN(Cc3ccc4[nH]c(=O)[nH]c4c3)C2)C1 (stereo not shown) [Example 222, 5-fluoro-N-isopropyl-N-methyl-2-((4-(7-((2-oxo-2,3-dihydro-1H-benzo[d]imidazol-5-yl)methyl)-2,7-diazaspiro[4.4]nonan-2-yl)pyrimidin-5-yl)oxy)benzenesulfon-amide]
8 | < 0.1 µM | – | 0.1 to 1 µM | Cc1c(C#N)cccc1-c1cc(F)ccc1Oc1cncnc1N1CCC2(CCN(Cc3ccc4[nH]c(=O)[nH]c4c3)C2)C1 (stereo not shown) [Example 230, 5′-fluoro-2-methyl-2′-((4-(7-((2-oxo-2,3-dihydro-1H-benzo[d]imidazol-5-yl)methyl)-2,7-diazaspiro[4.4]nonan-2-yl)pyrimidin-5-yl)oxy)-[1,1′-biphenyl]-3-carbonitrile]

The next lines start with the compound.

Row | SMILES | IC50 [1] | EC50 ([2]; 72 h) | EC50 ([2]; Homo sapiens, MV4-11, 72 h)
9 | CC(C)N(C(=O)c1cc(F)ccc1Oc1cncnc1N1CCC2(CC(Cc3ccc(F)cc3)N(CCO)C2)C1)C(C)C (single isomer, unassigned) [Example 26B, 5-fluoro-2-((4-(8-(4-fluorobenzyl)-7-(2-hydroxyethyl)-2,7-diazaspiro[4.4]nonan-2-yl)pyrimidin-5-yl)oxy)-N,N-diisopropylbenzamide] | < 0.1 µM | ≥ 1 µM | –
10 | CC(C)n1nc(C(F)(F)F)cc1-c1cc(F)ccc1Oc1cncnc1N1CCC2(CCN(Cc3ccc4[nH]c(=O)[nH]c4c3)C2)C1 (stereo not shown) [Example 217, 5-((7-(5-(4-fluoro-2-(1-isopropyl-3-(trifluoromethyl)-1H-pyrazol-5-yl)phenoxy)pyrimidin-4-yl)-2,7-diazaspiro[4.4]nonan-2-yl)methyl)-1,3-dihydro-2H-benzo[d]imidazol-2-one] | < 0.1 µM | – | < 0.1 µM
11 | CCOC(=O)c1ccccc1-c1cc(F)ccc1Oc1cncnc1N1CCC2(CCN(Cc3ccc4[nH]c(=O)[nH]c4c3)C2)C1 (stereo not shown) [Example 223, ethyl 5′-fluoro-2′-((4-(7-((2-oxo-2,3-dihydro-1H-benzo[d]imidazol-5-yl)methyl)-2,7-diazaspiro[4.4]nonan-2-yl)pyrimidin-5-yl)oxy)-[1,1′-biphenyl]-2-carboxylate] | < 0.1 µM | – | 0.1 to 1 µM
12 | NC(=O)c1ccc2c(CN3CCC4(CCN(c5ncncc5Oc5ccc(F)cc5OCC5CC5)C4)C3)c[nH]c2c1 (stereo not shown) [Example 200, 3-((7-(5-(2-(cyclopropylmethoxy)-4-fluorophenoxy)pyrimidin-4-yl)-2,7-diazaspiro[4.4]nonan-2-yl)methyl)-1H-indole-6-carboxamide] | < 0.1 µM | – | 0.1 to 1 µM
13 | CCN(C(=O)C(C)C)c1cc(F)ccc1Oc1cncnc1N1CC2(CCN(CC3CCCCC3)C2)C1 [Example 158, N-(2-((4-(6-(cyclohexylmethyl)-2,6-diazaspiro[3.4]octan-2-yl)pyrimidin-5-yl)oxy)-5-fluorophenyl)-N-ethylisobutyramide] | < 0.1 µM | – | 0.1 to 1 µM
14 | Cn1c(-c2cc(F)ccc2Oc2cncnc2N2CCC3(CCN(Cc4ccc5[nH]c(=O)[nH]c5c4)C3)C2)c(C2CC2)ccc1=O (single isomer, unassigned) [Example 29B, 5-((7-(5-(2-(3-cyclopropyl-1-methyl-6-oxo-1,6-dihydropyridin-2-yl)-4-fluorophenoxy)pyrimidin-4-yl)-2,7-diazaspiro[4.4]nonan-2-yl)methyl)-1,3-dihydro-2H-benzo[d]imidazol-2-one] | < 0.1 µM | 0.1 to 1 µM | –
15 | CCN(C(=O)C(C)C)c1cc(F)ccc1Oc1cncnc1N1CC2(CN(C(=O)Cc3ccc(S(C)(=O)=O)cc3)C2)C1 [Example 119, N-ethyl-N-(5-fluoro-2-((4-(6-(2-(4-(methylsulfonyl)phenyl)acetyl)-2,6-diazaspiro[3.3]heptan-2-yl)pyrimidin-5-yl)oxy)phenyl)isobutyramide] | < 0.1 µM | – | 0.1 to 1 µM
16 | CC(C)c1ncncc1-c1cc(F)ccc1Oc1cnccc1N1CCC2(CCN(Cc3ccc4[nH]c(=O)[nH]c4c3)C2)C1 (stereo not shown) [Example 28, 5-((7-(3-(4-fluoro-2-(4-isopropylpyrimidin-5-yl)phenoxy)pyridin-4-yl)-2,7-diazaspiro[4.4]nonan-2-yl)methyl)-1,3-dihydro-2H-benzo[d]imidazol-2-one] | < 0.1 µM | – | < 0.1 µM
17 | CC(C)N(C(=O)c1cc(F)ccc1Oc1cncnc1N1CC2(CCN(C[C@H]3CC[C@@H](NS(C)(=O)=O)CC3)CC2)C1)C(C)C [Example 6B, 5-fluoro-N,N-diisopropyl-2-((4-(7-(((1s,4s)-4-(methylsulfonamido)cyclohexyl)methyl)-2,7-diazaspiro[3.5]nonan-2-yl)pyrimidin-5-yl)oxy)benzamide] | < 0.1 µM | – | < 0.1 µM
